Measurements published in patent publication US20130344140A1, “NOVEL PHARMACEUTICAL COMBINATIONS AND METHODS FOR TREATING CANCER” (Agency for Science, Technology and Research, priority 2011, published 2013).

Legend:
[1] = system: MDA-MB 468 and HCT116 p53−/−; test: Annexin V apoptosis assay, p53-compromised cell lines; type: cell-based; conditions: various concentrations of VX-680; MDA-MB 468 and HCT116 p53−/−
Protocol: (§3) Cells were then harvested and stained for annexin V to detect apoptotic cells.
(§4) For analysis of apoptosis, cells were harvested without fixation. Apoptosis was evaluated using the annexin V (fluorescein isothiocyanate (FITC))-propidium iodide binding assay (Roche, Indianapolis, Ind., USA). The extent of apoptosis was quantified as a percentage of annexin V-positive cells over the total cell population. Flow cytometric analysis was performed on a BD LSR II System (BD Biosciences, Stockholm, Sweden). Data were analyzed using FlowJo software and ModFit LT (Verity Software House, Topsham, Me., USA).

A549 cells [2] = test: Micronuclei formation and γH2AX staining (immunofluorescence microscopy) in A549 cells; type: cell-based
Protocol: Cells were fixed and stained for γH2AX (green) as described in Materials and Methods in the Examples. Nuclei were counterstained with DAPI blue. Visualization of nuclei and γH2AX positive foci was done by fluorescence microscopy.
Indirect immunofluorescence was carried out as described previously.^14 g-H2AX (Novus Biologicals, Littleton, Colo., USA, NB 100-383) and anti-rabbit Alexa 488-coupled secondary antibody (Molecular Probes, Carlsbad, Calif., USA) were used. Nuclei were counterstained with Hoechst 33342 (Molecular Probes). Immunofluorescence was visualized using Axiolmager Z1 (Zeiss, Gottingen, Germany).

[3] = system: Cdk/cyclin kinase activities (Cdk2, cdc2, cyclins A2 and B1) in A549 cells; test: Cdk/cyclin kinase activities after incubation with VX-680 (immunoprecipitation, histone H1 kinase assay); type: cell-based; conditions: A549, VX-680 time course
Protocol: (b) is a series of western blots showing the kinetics of Kinetics of Cdk/cyclin kinase activities after incubation with VX-680. Cdk/cyclin kinase activities were assayed in vitro (refer to Materials and Methods in Examples). Cdk2, cyclins A and B1 were immunoprecipitated from cell lysates using specific antibodies followed by in vitro kinase assays using histone H1 as a substrate. Suc1 is used to capture Cdk1 and Cdk2 complexes by protein pull down as described in Materials and Methods. […]
The immunoprecipitated beads were resuspended in 5 μl of EB buffer, 10 mM DTT and 20 to […]. […] After electrophoresis on 12.5% polyacrylamide gels, phosphorylation was analyzed by autoradiography and quantified by phosphorimage analysis.

p53, p21, MDM2 and PUMA = test: Accumulation of p53 and p53-dependent gene products in response to VX-680 (western blot, transcript levels); type: cell-based; conditions: cells treated with VX-680 (FIG. 8A)
Protocol: (A) Western blots show the accumulation of p53, p21, MDM2 and PUMA proteins. Graphs below represent the quantification of the corresponding transcript levels of the proteins.
(§1) For western blotting, cell extracts were prepared using NP-40 lysis buffer (50 mM Tris-HCl (pH 8.0), 150 mM NaCl, 1% NP-40, 5 mM EDTA supplemented with protease and phosphatase inhibitor cocktails (Sigma).
(§2) Total RNA was isolated using the RNeasy kit (Qiagen, Valencia, Calif., USA). The RNA was quantified using spectrophotometric analysis and used for quantitative real-time PCR. The primers used for each target analyzed are available on request. The RNA Master Power SYBR Green Mix (Roche) was used for quantification of mRNA levels.

A549 cells [4] = test: Time course of cell cycle distribution of A549 cells incubated with VX-680; type: cell-based; conditions: A549, 200 nM VX-680, after 48 h
Protocol: After 48 h, more than 35% of cells were arrested in tetraploid G2/M (8N) (FIG. 2a). […] Together, the results confirmed that the 8N cells were arrested predominantly in G2 and VX-680 inhibited mitosis in part through a G2 checkpoint.

A375 and HCT116 p53+/+ = test: Annexin V apoptosis assay, p53-positive cell lines; type: cell-based; conditions: various concentrations of VX-680
Protocol: as §3, §4

[5] = system: cyclins A2 and B1 mRNAs in wild-type HCT116 cells; test: qRT-PCR of transcript levels in HCT116 cells treated with VX-680; type: cell-based; conditions: VX-680-treated wild-type HCT116 (not in p53−/− or p21−/− cells)
Protocol: It is noteworthy that cyclins A2 and B1 levels remained high in p53−/− and p21−/− cells even after cells were incubated with VX-680 for 48 h, in contrast to that observed in the wild-type cells.
as §2

A549 cells [6] = test: Mitotic index of A549 cells exposed to VX-680; type: cell-based; conditions: A549, VX-680 200 nM
Protocol: (B) is a graph showing the Mitotic index of A549 cells exposed to VX-680. A549 cells were incubated with VX-680 (200 nM) and the mitotic cells were counted and expressed as a percentage of total cells count. To aid visualization of the condensed chromosomes, H2B-GFP was expressed in A549. Each data point represents the mean±SD (n=3).

human keratinocytes = conditions: HEK cells treated with VX-680
Protocol: Primary human keratinocytes were purchased from Invitrogen and cultured in defined keratinocyte serum-free media (Invitrogen). All cell lines were cultured in a CO2 incubator (5% CO2 and 21% O2) at 37° C.
For analysis of cell cycle distribution, cells were harvested and fixed in 70% ethanol/PBS solution. Cells were stained in propidium-iodide containing solution (25 μg/ml propidium iodide supplemented with 1 mg/ml RNase A, in PBS (pH 7.8); Sigma Chemical, St Louis, Mo., USA) for 15 min at room temperature.

[7] = system: cyclins A2 and B1 in A549 cells; test: Western blot of cell cycle-related proteins after VX-680 treatment; type: cell-based; conditions: A549, VX-680 time course
Protocol: (c) is a series of western blots showing the comparison of expression levels of cell cycle-related proteins (Rb, cdc2, Cdk2, cyclin A2, cyclin E1 and cyclin B1) and p53-dependent gene products (MDM2 and p21) at the indicated time points after VX-680 treatment. Downregulation of mitotic cyclins A and B and upregulation of p53-dependent genes p21 and MDM2 correlate with the activation of p53.
as §1

ATM = ATM / DNA damage checkpoint dependence of VX-680-induced G2 arrest (western blot, DNA FACS profiles); type: cell-based
Protocol: as §1

`Cc1cc(Nc2cc(N3CCN(C)CC3)nc(Sc3ccc(NC(=O)C4CC4)cc3)n2)[nH]n1` [VX-680, cyclopropane carboxylic acid of {4-[4-(4-methyl-piperazin-1-yl)-6-(5-methyl-2H-pyrazol-3-ylamino)-pyrimidin-2-ylsulphanyl]-phenyl}-amide] was tested, and the “apoptosis (annexin V)” value [1] was “underwent apoptosis”, the “cells containing at least 1 micronucleus per nucleus” value (A549 cells [2]; A549, VX-680 48 h) was “More than 70%” and the “γH2AX staining in the micronuclei” value (A549 cells [2]; A549, VX-680-treated) was “increased”. The “Cdk2 and cdc2 kinase activities” value [3] was “markedly reduced to undetectable levels”, the “cyclins A2- and B1-associated kinase activities” value [3] was “rapid reduction” and the p53 activation (p53, p21, MDM2 and PUMA) was “p53 was activated”. The “p53 target genes p21, PUMA and MDM2” value (p53, p21, MDM2 and PUMA) was “all upregulated”, the “cells arrested in tetraploid G2/M (8N)” value (A549 cells [4]) was “more than 35%” and the “apoptosis (annexin V)” value (A375 and HCT116 p53+/+) was “underwent apoptosis”. The “cyclins A2 and B1 mRNAs” value [5] was “greatly reduced”, the “time at which the mitotic index peaked” value (A549 cells [6]; after treatment) was 16 h and the mitotic index (A549 cells [6]; at 48 h) was 2%. The tetraploidy formation (human keratinocytes) was “significant tetraploid G2/M population”, the “protein levels of cyclins A2 and B1” value [7] was “timedependent decrease” and the “p53 phosphorylation on Ser15” value (ATM; VX-680-treated cells) was “without detectable phosphorylation on Ser15”. The “activation of ATM (Ser1981 phosphorylation)” value (ATM; low concentrations of VX-680) was “did not induce activation of ATM”.
